Reference: the CheMixHub ionic liquid set

Experiment: xn = mol fraction of the nth substance listed

[Cl-].[Na+] + CCCCCCCCCCCC[N+](C)(C)C.[Br-] + O
298.15 K, 101 kPa
Conditions | electrical conductivity [S/m]
x2 = 0, x1 = 0.0001802 | 0.1161
x2 = 0, x1 = 0.001799 | 0.8806

NCC(=O)O + CCCCCCCCCCCC[N+](C)(C)Cc1ccccc1.[Cl-] + O
electrical conductivity [S/m], 101 kPa
Conditions | 293.15 K | 298.15 K | 303.15 K | 308.15 K | 313.15 K
x1 = 0.0008876, x2 = 0 | 0.000384 | 0.000431 | 0.000492 | 0.000549 | 0.000613
x1 = 0.001759, x2 = 0 | 0.00074 | 0.000839 | 0.000945 | 0.00106 | 0.00118

CCCC[n+]1ccn(C)c1.N#C[S-] + CCCCCCO
101 kPa
Conditions | viscosity [mPa·s]
298.15 K, x2 = 0.1505 | 36.2
308.15 K, x2 = 0.1505 | 24.6
308.15 K, x2 = 0.453 | 13.1
308.15 K, x2 = 0.9102 | 4.42
318.15 K, x2 = 0.6307 | 6.91
318.15 K, x2 = 0.9102 | 3.41
328.15 K, x2 = 0.6962 | 4.59
328.15 K, x2 = 0.7583 | 3.92
328.15 K, x2 = 0.8512 | 3.17
338.15 K, x2 = 0.0424 | 12
338.15 K, x2 = 0.3093 | 8.15
338.15 K, x2 = 0.453 | 6.07
338.15 K, x2 = 0.5773 | 4.76
348.15 K, x2 = 0.0424 | 9.56

CCCN + CCCCCC[n+]1ccn(C)c1.F[B-](F)(F)F
298.15 K, 101 kPa
Conditions | viscosity [mPa·s]
x1 = 0.1525 | 110
x1 = 0.5052 | 29.08
x1 = 0.9012 | 1.672

CCCC[n+]1ccn(C)c1.N#C[S-] + CCCCCO
101 kPa
Conditions | viscosity [mPa·s]
308.15 K, x2 = 0.0193 | 31.1
308.15 K, x2 = 0.1443 | 23.4
318.15 K, x2 = 0.5557 | 7.31
328.15 K, x2 = 0.7302 | 3.71
338.15 K, x2 = 0 | 12.7
338.15 K, x2 = 0.3843 | 6.75
338.15 K, x2 = 0.616 | 4.13
348.15 K, x2 = 0.2751 | 6.6
348.15 K, x2 = 0.3843 | 5.49
348.15 K, x2 = 0.7914 | 2.17
348.15 K, x2 = 0.9135 | 1.5

CCCC[n+]1ccn(C)c1.N#C[S-] + CCCCO
101 kPa
Conditions | viscosity [mPa·s]
298.15 K, x2 = 0.5596 | 11.2
298.15 K, x2 = 0.6222 | 9.23
298.15 K, x2 = 0.79 | 5.28
298.15 K, x2 = 0.9738 | 2.9
308.15 K, x2 = 0.6834 | 5.8
318.15 K, x2 = 0.0911 | 19
318.15 K, x2 = 0.5596 | 6.55
318.15 K, x2 = 0.6222 | 5.5
318.15 K, x2 = 0.6834 | 4.59
318.15 K, x2 = 0.9738 | 1.81
328.15 K, x2 = 0.4552 | 6.86
328.15 K, x2 = 0.6834 | 3.72
338.15 K, x2 = 0.5596 | 4.19
338.15 K, x2 = 0.6222 | 3.6
348.15 K, x2 = 0.3317 | 5.78
348.15 K, x2 = 0.8975 | 1.34
348.15 K, x2 = 0.9738 | 1

O=S(=O)([N-]S(=O)(=O)C(F)(F)F)C(F)(F)F.O=S(=O)([N-]S(=O)(=O)C(F)(F)F)C(F)(F)F.[Zn+2] + CCCC[N+]1(C)CCCC1.O=S(=O)([N-]S(=O)(=O)C(F)(F)F)C(F)(F)F
100 kPa, x1 = 0.24
Conditions | electrical conductivity [S/m]
356.5 K | 0.306
409.4 K | 1.24

O=S1(=O)CCCC1 + CCCC[N+]1(C)CCCC1.O=S(=O)([N-]S(=O)(=O)C(F)(F)F)C(F)(F)F
101.33 kPa, x2 = 0.5
Conditions | viscosity [mPa·s]
303.15 K | 25.8
313.15 K | 18.6
323.15 K | 12.9
333.15 K | 9.7
343.15 K | 8
353.25 K | 6.7
